Source: patent publication US9801919B2, “Oral compositions containing enhanced antibacterial combinations of antioxidants and extracts of magnolia” (WM. WRIGLEY JR. COMPANY, priority 2008, dated 2017)

Legend:
S. mutans [1] = assay: MIC and FIC of MBE and common antioxidants against S. mutans (broth two-fold dilution); format: cell-based, Streptococcus mutans; settings: sample alone, lowest concentration with no visible growth, aerobic 37° C., 1 to 2 days; for MIC: Streptococcus mutans
Method: (§1) To evaluate an enhanced effect of an active ingredient in combination of magnolia with antioxidant, the fractional inhibitory index (FIC) is computed according to equation (1): […]
The following tests were conducted on S. mutans.
BHA, gallic acid, octyl gallate and magnolia bark extract (MBE) sample were dissolved in ethanol to produce 1-10% working solution and was added to a nutrient broth and shaken well and was diluted two-fold in individual test tubes. A total of 0.2 milliliter (mL) of inoculated bacteria culture purchased from American Type Culture Collection (ATCC) was added to each test tube. The tubes were incubated aerobically at 37° C. for 1 to 2 days. […] FIC values were determined by equation 1.

S. sobrinus = assay: MIC and FIC of MBE and common antioxidants against S. sobrinus (broth two-fold dilution); format: cell-based, Streptococcus sobrinus; settings: sample alone, lowest concentration with no visible growth, aerobic 37° C., 1-2 days; for MIC: Streptococcus sobrinus
Method: as §1
S. Sobrinus, another common pathogen associated with dental plaque is also associated with dental caries.
BHA, BHT, gallic acid, octyl gallate and magnolia bark extract (MBE) samples were dissolved in ethanol to produce 1-10% working solution and was added to a nutrient broth and shaken well and was diluted two-fold in individual test tubes A total of 0.2 mL of inoculated bacteria culture purchased from ATCC was added to each test tube. The tubes were incubated aerobically at 37° C. for 1-2 days.

S. mutans [2] = settings: active principles of Magnolia Cortex extracts; cited from earlier work

COc1ccc(O)c(C(C)(C)C)c1 [BHA, butylated hydroxyanisole]
MIC (ppm) (S. mutans [1]): 250 ppm
MIC (ppm) (S. sobrinus): 500 ppm

Cc1cc(C(C)(C)C)c(O)c(C(C)(C)C)c1 [BHT, butylated hydroxytoluene]
MIC (S. sobrinus): > 2000 µg/mL

O=C(O)c1cc(O)c(O)c(O)c1 [Gallic acid]
MIC (S. mutans [1]): > 2000 µg/mL
MIC (S. sobrinus): > 2000 µg/mL

CCCCCCCCOC(=O)c1cc(O)c(O)c(O)c1 [Octyl gallate]
MIC (S. mutans [1]): 250 µg/mL
MIC (S. sobrinus): 250 µg/mL

C=CCc1ccc(O)c(-c2ccc(O)c(CC=C)c2)c1 [honokiol]
bactericidal against S. mutans in in vitro MIC test (S. mutans [2]): bactericidal

C=CCc1ccc(O)c(-c2cc(CC=C)ccc2O)c1 [magnolol]
bactericidal against S. mutans in in vitro MIC test (S. mutans [2]): bactericidal

CCCc1ccc(O)c(-c2ccc(O)c(CCC)c2)c1 [tetrahydrohonokiol]
bactericidal against S. mutans in in vitro MIC test (S. mutans [2]): bactericidal

CCCc1ccc(O)c(-c2cc(CCC)ccc2O)c1 [tetrahydromagnolol]
bactericidal against S. mutans in in vitro MIC test (S. mutans [2]): bactericidal
